According to patent US12351570B2 (MERCK PATENT GMBH, priority 2018, dated 2025):

Each compound was assayed on MDA-MB-231 cells (assay: Extracellular lactate production inhibition after 4 h, MDA-MB-231). Conditions: Homo sapiens, MDA-MB-231.
Compound `Cc1ccc2nsnc2c1S(=O)(=O)Nc1ccccc1C#Cc1ccc(C(=O)O)nc1` [Compound 290, 5-{2-[2-(5-methyl-2,1,3-benzothia-diazole-4-sulfonamido)phenyl]-ethynyl}pyridine-2-carboxylic acid] has an IC50 of 1000 to 100000 nM. Compound `Cn1ccc2cccc(S(=O)(=O)Nc3ccccc3C#Cc3ccc(C(=O)O)nc3)c21` [Compound 296, 5-{2-[2-(1-methyl-1H-indole-7-sulfonamido)phenyl]ethynyl}pyridine-2-carboxylic acid] has an IC50 of 1000 to 100000 nM. For `COc1cc(C(=O)O)ncc1C#Cc1ccccc1NS(=O)(=O)c1c(C)ccc2cccnc12` [Compound 164, 4-methoxy-5-{2-[2-(7-methylquinoline-8-sulfonamido)phenyl]ethynyl}pyridine-2-carboxylic acid], the IC50 was 1 to 10 nM. Work on `O=C(O)c1ccc(C#Cc2ccccc2S(=O)(=O)Nc2cccc3cccnc23)cn1` [Compound 432, 5-(2-{2-[(quinolin-8-yl)sulfamoyl]phenyl}ethynyl)pyridine-2-carboxylic acid] yielded an IC50 of 1000 to 100000 nM. `CNC(=O)c1ccc(C#Cc2ccccc2NS(=O)(=O)c2ccc(OC)c3cccnc23)cn1` [Compound 156, 5-{2-[2-(5-methoxyquinoline-8-sulfonamido)phenyl]ethynyl}-N-methylpyridine-2-carboxamide] was tested, and the IC50 was 1000 to 100000 nM. `Cc1ccccc1S(C)(=O)=Nc1ccccc1C#Cc1ccc(C(=O)O)nc1` (stereo not shown) [Compound 438, 5-[2-(2-{[methyl(2-methylphenyl)oxo-λ6-sulfanylidene]amino}phenyl)ethynyl] pyridine-2-carboxylic acid] gave an IC50 of 1000 to 100000 nM. `COc1cc(C(=O)O)ncc1C#Cc1cc(Br)c(F)cc1NS(=O)(=O)c1ccc(OC)c2cccnc12` [Compound 358, 5-{2-[5-bromo-4-fluoro-2-(5-methoxyquinoline-8-sulfonamido)phenyl]ethynyl}-4-methoxypyridine-2-carboxylic acid] was tested, and the IC50 was 1 to 10 nM. `O=C(O)c1ccc(C#Cc2ccccc2NS(=O)(=O)c2cc(F)cc3cccnc23)cn1` [Compound 294, 5-{2-[2-(6-fluoroquinoline-8-sulfonamido)phenyl]ethynyl}pyridine-2-carboxylic acid] showed an IC50 of 100 to 1000 nM. `CCOc1cc(C#Cc2ccccc2NS(=O)(=O)c2c(C)ccc3cccnc23)cnc1C(=O)O` [Compound 188, 3-ethoxy-5-{2-[2-(7-methylquinoline-8-sulfonamido)phenyl]ethynyl}pyridine-2-carboxylic acid] was tested, and the IC50 was 100 to 1000 nM. `Cc1cc(S(=O)(=O)Nc2ccccc2C#Cc2ccc(C(=O)O)nc2)c2ncccc2c1` [Compound 265, 5-[2-(6-Methyl-quinoline-8-sulfonyl-amino)-phenylethynyl]-pyridine-2-carboxylic acid] was tested, and the IC50 was 100 to 1000 nM. For `Cc1cc(C)c2cccnc2c1S(=O)(=O)Nc1ccccc1C#Cc1ccc(C(=O)O)nc1` [Compound 381, 5-{2-[2-(5,7-dimethylquinoline-8-sulfonamido)phenyl]ethynyl}pyridine-2-carboxylic acid], the IC50 was 10 to 100 nM. In the case of `C#CCOc1ccnc2c(S(=O)(=O)Nc3ccccc3C#Cc3ccc(C(=O)O)nc3)cccc12` [Compound 354, 5-(2-{2-[4-(prop-2-yn-1-yloxy)quinoline-8-sulfonamido]phenyl}ethynyl)pyridine-2-carboxylic acid], the IC50 is reported as 100 to 1000 nM. For `COc1cc(C#Cc2ccccc2NS(=O)(=O)c2ccc(OC)c3ccccc23)ccc1C(=O)O` [Compound 33, 2-methoxy-4-{2-[2-(4-methoxynaphthalene-1-sulfonamido)phenyl]ethynyl}benzoic acid], the IC50 was 100 to 1000 nM. For `CS(=O)(=Nc1ccccc1C#Cc1ccc(C(=O)O)nc1)c1ccccc1` (stereo not shown) [Compound 424, 5-[2-(2-{[methyl(oxo)phenyl-λ6-sulfanylidene]amino}phenyl)ethynyl] pyridine-2-carboxylic acid], the IC50 was 1000 to 100000 nM. `CCOc1cc(C#Cc2ccccc2NS(=O)(=O)c2ccc(OC)c3ccccc23)ccc1C(=O)O` [Compound 58, 2-ethoxy-4-{2-[2-(4-methoxynaphthalene-1-sulfonamido)phenyl]ethynyl}benzoic acid] showed an IC50 of 100 to 1000 nM. Compound `CCOc1ccc(S(=O)(=O)Nc2ccccc2C#Cc2cnc(C(=O)O)c3ccccc23)c2ncccc12` [Compound 442, 4-{2-[2-(5-ethoxyquinoline-8-sulfonamido)phenyl]ethynyl}iso-quinoline-1-carboxylic acid] has an IC50 of 10 to 100 nM. `Cc1ccc2cccnc2c1S(=O)(=O)Nc1cc(F)c(Br)cc1C#Cc1ccc(C(=O)O)nc1` [Compound 341, 5-{2-[5-bromo-4-fluoro-2-(7-methylquinoline-8-sulfonamido)phenyl]-ethynyl}pyridine-2-carboxylic acid] was tested, and the IC50 was 1 to 10 nM. For `Cc1ccccc1-c1ccc(S(=O)(=O)Nc2ccccc2C#Cc2ccc(C(=O)O)nc2)cc1` [Compound 293, 5-[2-(2-{2′-methyl-[1,1′-biphenyl]-4-sulfonamido}phenyl)ethynyl]pyridine-2-carboxylic acid], the IC50 was 100 to 1000 nM. `CSc1nccc(-c2ccc(S(=O)(=O)Nc3ccccc3C#Cc3ccc(C(=O)O)cc3)s2)n1` [Compound 282, 4-[2-(2-{5-[2-(methylsulfanyl)pyrimidin-4-yl]thiophene-2-sulfonamido}phenyl)-ethynyl]benzoic acid] was tested, and the IC50 was 1000 to 100000 nM. Compound `Cc1cc(C(=O)O)ncc1C#Cc1cc(F)ccc1NS(=O)(=O)c1ccc(-c2ccccc2)cc1` [Compound 138, 5-[2-(2-{[1,1′-biphenyl]-4-sulfonamido}-5-fluorophenyl)ethynyl]-4-methylpyridine-2-carboxylic acid] has an IC50 of 100 to 1000 nM. `COc1ccc(S(=O)(=O)Nc2ccc(-c3ccccc3)cc2C#Cc2ccc(C(=O)O)nc2)c2ncccc12` [Compound 350, 5-{2-[4-(5-methoxyquinoline-8-sulfonamido)-[1,1′-biphenyl]-3-yl]ethynyl}pyridine-2-carboxylic acid] showed an IC50 of 100 to 1000 nM. Work on `O=C(O)c1ccc(C#Cc2ccccc2NS(=O)(=O)c2cccc3c(Cl)cc(Cl)nc23)cn1` [Compound 314, 5-{2-[2-(2,4-dichloroquinoline-8-sulfonamido)phenyl]ethynyl}pyridine-2-carboxylic acid] yielded an IC50 of 100 to 1000 nM. Compound `COc1ccc(NS(=O)(=O)c2ccccc2C#Cc2ccc(C(=O)O)nc2)c(C)c1C` [Compound 430, 5-(2-{2-[(4-methoxy-2,3-dimethylphenyl)sulfamoyl]phenyl}ethynyl)pyridine-2-carboxylic acid] has an IC50 of 1000 to 100000 nM. For `O=C(O)c1ccc(C#Cc2ccccc2NS(=O)(=O)c2cc(Cl)c(Cl)s2)cc1` [Compound 275, 4-{2-[2-(4,5-dichlorothiophene-2-sulfonamido)phenyl]ethynyl}benzoic acid], the IC50 was 1000 to 100000 nM. With `COCCOCCOc1ccnc2c(S(=O)(=O)Nc3ccccc3C#Cc3ccc(C(=O)O)nc3)cccc12` [Compound 330, 5-[2-(2-{4-[2-(2-methoxyethoxy)-ethoxy]quinoline-8-sulfonamido}-phenyl)ethynyl]pyridine-2-carboxylic acid] the IC50 was 1000 to 100000 nM. `COC(=O)c1ncc(C#Cc2cc(F)ccc2NS(=O)(=O)c2cccc(OC)c2)cc1C` [Compound 321, methyl 5-{2-[5-fluoro-2-(3-methoxy-benzenesulfonamido)phenyl]ethynyl}-3-methylpyridine-2-carboxylate] was tested, and the IC50 was 1000 to 100000 nM. `O=CN(Cc1cnc2ccccc2c1)c1ccccc1C#Cc1ccc(C(=O)O)nc1` [Compound 196, 5-[2-(2-{N-[(quinolin-3-yl)methyl]formamido}phenyl)ethynyl]-pyridine-2-carboxylic acid] was tested, and the IC50 was 1000 to 100000 nM. In the case of `COc1cc(CN(C=O)c2ccccc2C#Cc2ccc(C(=O)O)nc2)ccc1-c1ccccc1` [Compound 201, 5-(2-{2-[N-({2-methoxy-[1,1′-biphenyl]-4-yl}methyl)formamido]phenyl}-ethynyl)pyridine-2-carboxylic acid], the IC50 is reported as 10 to 100 nM. Compound `O=C(O)c1ccc(C#Cc2ccccc2NS(=O)(=O)N2CCCC3CCCCC32)cn1` (stereo not shown) [Compound 144, 5-(2-{2-[(decahydroquinoline-1-sulfonyl)amino]phenyl}ethynyl)pyridine-2-carboxylic acid] has an IC50 of 10 to 100 nM. `CC(C)Oc1ccc(S(=O)(=O)Nc2ccccc2C#Cc2ccc(C(=O)O)nc2)c2ccccc12` [Compound 295, 5-(2-{2-[4-(propan-2-yloxy)naphthalene-1-sulfonamido]phenyl}ethynyl)pyridine-2-carboxylic acid] gave an IC50 of 10 to 100 nM. Compound `O=C(O)c1ccc(C#Cc2cc(F)ccc2NS(=O)(=O)c2cccc3cccnc23)cn1` [Compound 111, 5-{2-[5-fluoro-2-(quinoline-8-sulfonamido)phenyl]ethynyl}pyridine-2-carboxylic acid] has an IC50 of 100 to 1000 nM. `Cc1cccc(S(C)(=O)=Nc2ccccc2C#Cc2ccc(C(=O)O)nc2)c1` (stereo not shown) [Compound 435, 5-[2-(2-{[methyl(3-methylphenyl)oxo-λ6-sulfanylidene]amino}phenyl)ethynyl] pyridine-2-carboxylic acid] gave an IC50 of 1000 to 100000 nM. `CCCCOC(=O)c1ccc(C#Cc2ccccc2NS(=O)(=O)c2ccc(OC)c3cccnc23)cn1` [Compound 168, butyl 5-{2-[2-(5-methoxyquinoline-8-sulfonamido)phenyl]ethynyl}pyridine-2-carboxylate] was tested, and the IC50 was 10 to 100 nM. `Cc1cc(C#Cc2cc(F)ccc2NS(=O)(=O)c2ccc(-c3ccccc3)cc2)cnc1C(=O)O` [Compound 308, 5-[2-(2-{[1,1′-biphenyl]-4-sulfonamido}-5-fluorophenyl)ethynyl]-3-methylpyridine-2-carboxylic acid] showed an IC50 of 100 to 1000 nM. Work on `CCNc1ccnc2c(S(=O)(=O)Nc3ccccc3C#Cc3ccc(C(=O)O)nc3)cccc12` [Compound 426, 5-[2-(4-Ethylamino-quinoline-8-sulfonylamino)-phenylethynyl]-pyridine-2-carboxylic acid] yielded an IC50 of 1000 to 100000 nM. With `Cc1cc(C#Cc2ccccc2N(C=O)Cc2ccc(-c3ccccc3)cc2)cnc1C(=O)O` [Compound 194, 5-(2-{2-[N-({[1,1′-biphenyl]-4-yl}methyl)formamido]phenyl}ethynyl)-3-methylpyridine-2-carboxylic acid] the IC50 was 100 to 1000 nM.

Same assay, conditions: Table 3; group class A-D; the table does not say which assay or cell line ("the assays described above")
Compound `COc1ccc(S(=O)(=O)Nc2ccc(F)cc2C#Cc2ccc(C(=O)NS(C)(=O)=O)nc2)c2ccccc12` [Compound 255, 4-Methoxy-naphthalene-1-sulfonic acid [4-fluoro-2-(6-methanesulfonyl-aminocarbonyl-pyridin-3-ylethynyl)-phenyl]-amide] has an IC50 of 1000 to 100000 nM.
